Counter-ions that a name gives are not always drawn.
Tests used:
[1] = biological target: wild-type EZH2 (PRC2 enzyme) (Homo sapiens (Human), UniProt Q15910); experiment: PRC2 enzyme assay on peptide substrate, wild-type EZH2 (H3K27me0 peptide, 3H-SAM Flashplate); type: biochemical; conditions: wild-type PRC2 4 nM, read-out: WT EZH2 IC50
Method: (§1) Human PRC2 enzymes were purified as 4-component enzyme complexes co-expressed in Spodoptera frugiperda (sf9) cells using a baculovirus expression system. […] The EED subunit contained an N-terminal FLAG tag that was used to purify the entire 4-component complex from sf9 cell lysates.
(§2) The assays were all performed in a buffer consisting of 20 mM bicine (pH=7.6), 0.5 mM DTT, 0.005% BSG and 0.002% Tween20, prepared on the day of use. […] DMSO (1 μL) was added to columns 11, 12, 23, 24, rows A-H for the maximum signal control, and SAH, a known product and inhibitor of PRC2 (1 μL) was added to columns 11, 12, 23, 24, rows I-P for the minimum signal control. A cocktail (40 μL) containing the wild-type PRC2 enzyme and H3K27me0 peptide or any of the Y641 mutant enzymes and H3K27me2 peptide was added by Multidrop Combi (Thermo). The compounds were allowed to incubate with PRC2 for 30 min at 25° C., then a cocktail (10 μL) containing a mixture of non-radioactive and ^3H-SAM was added to initiate the reaction (final volume=51 μL). […] The assays were stopped by the addition of non-radioactive SAM (10 μL) to a final concentration of 600 μM, which dilutes the ^3H-SAM to a level where its incorporation into the peptide substrate is no longer detectable. 50 of the reaction in the 384-well polypropylene plate was then transferred to a 384-well Flashplate and the biotinylated peptides were allowed to bind to the streptavidin surface for at least 1 h before being washed three times with 0.1% Tween20 in a Biotek ELx405 plate washer. The plates were then read in a PerkinElmer TopCount platereader to measure the quantity of ^3H-labeled peptide bound to the Flashplate surface, measured as disintegrations per minute (dpm) or alternatively, referred to as counts per minute (cpm).

WSU-DLCL2 cells = experiment: Cell proliferation analysis, WSU-DLCL2 (Cell Titer Glo); type: cell-based; conditions: Homo sapiens, WSUDLCL2, 144 h, 6 days incubation, ATP readout
Source text: Cell Proliferation Analysis
WSU-DLCL2 suspension cells were purchased from DSMZ (German Collection of Microorganisms and Cell Cultures, Braunschweig, Germany), RPMI/Glutamax Medium, Penicillin-Streptomycin, Heat Inactivated Fetal Bovine Serum were purchased from Life Technologies, Grand Island, N.Y., USA, V-bottom polypropylene 384-well plates were purchased from Greiner Bio-One, Monroe, N.C., USA. Cell culture 384-well white opaque plates were purchased from Perkin Elmer, Waltham, Mass., USA. Cell-Titer Glo® was purchased from Promega Corporation, Madison, Wis., USA. SpectraMax M5 plate reader was purchased from Molecular Devices LLC, Sunnyvale, Calif., USA.
WSU-DLCL2 suspension cells were maintained in growth medium (RPMI 1640 supplemented with 10% v/v heat inactivated fetal bovine serum and cultured at 37° C. under 5% CO2. Under assay conditions, cells were incubated in Assay Medium (RPMI 1640 supplemented with 20% v/v heat inactivated fetal bovine serum and 100 units/mL penicillin-streptomycin) at 37° C. under 5% CO2.
For the assessment of the effect of compounds on the proliferation of the WSU-DLCL2 cell line, exponentially growing cells were plated in 384-well white opaque plates at a density of 1250 cell/ml in a final volume of 50 μl of assay medium. A compound source plate was prepared by performing triplicate nine-point 3-fold serial dilutions in DMSO, beginning at 10 mM (final top concentration of compound in the assay was 20 μM and the DMSO was 0.2%). A 100 nL aliquot from the compound stock plate was added to its respective well in the cell plate. […] After addition of compounds, assay plates were incubated for 6 days at 37° C., 5% CO2, relative humidity >90% for 6 days. Cell viability was measured by quantization of ATP present in the cell cultures, adding 35 μl of Cell Titer Glo® reagent to the cell plates. Luminescence was read in the SpectraMax M5. The concentration inhibiting cell viability by 50% was determined using a 4-parametric fit of the normalized dose response curves.

[2] = biological target: EZH2 Y641F mutant (PRC2 enzyme) (Homo sapiens (Human), UniProt Q15910, Y641F); experiment: PRC2 enzyme assay on peptide substrate, EZH2 Y641F mutant (H3K27me2 peptide, 3H-SAM Flashplate); type: biochemical; conditions: Y641F mutant PRC2 4 nM
Method: as §1, §2

[3] = tested on: H3K27me3 in WSU-DLCL2 cells; experiment: WSU-DLCL2 methylation assay (H3K27me3 ELISA); type: cell-based, human; conditions: Homo sapiens, WSUDLCL2, 96 hours incubation, H3K27me3 normalised to total H3
Source text: WSU-DLCL2 Methylation Assay
WSU-DLCL2 suspension cells were purchased from DSMZ (German Collection of Microorganisms and Cell Cultures, Braunschweig, Germany). RPMI/Glutamax Medium, Penicillin-Streptomycin, Heat Inactivated Fetal Bovine Serum, and D-PBS were purchased from Life Technologies, Grand Island, N.Y., USA. Extraction Buffer and Neutralization Buffer (5×) were purchased from Active Motif, Carlsbad, Calif., USA. Rabbit anti-Histone H3 antibody was purchased from Abcam, Cambridge, Mass., USA. Rabbit anti-H3K27me3 and HRP-conjugated anti-rabbit-IgG were purchased from Cell Signaling Technology, Danvers, Mass., USA. TMB “Super Sensitive” substrate was sourced from BioFX Laboratories, Owings Mills, Md., USA. IgG-free Bovine Serum Albumin was purchased from Jackson ImmunoResearch, West Grove, Pa., USA. PBS with Tween (10×PBST) was purchased from KPL, Gaithersburg, Md., USA. Sulfuric Acid was purchased from Ricca Chemical, Arlington, Tex., USA. Immulon ELISA plates were purchased from Thermo, Rochester, N.Y., USA. V-bottom cell culture plates were purchased from Corning Inc., Corning, N.Y., USA. V-bottom polypropylene plates were purchased from Greiner Bio-One, Monroe, N.C., USA.
WSU-DLCL2 suspension cells were maintained in growth medium (RPMI 1640 supplemented with 10% v/v heat inactivated fetal bovine serum and 100 units/mL penicillin-streptomycin) and cultured at 37° C. under 5% CO2. Under assay conditions, cells were incubated in Assay Medium (RPMI 1640 supplemented with 20% v/v heat inactivated fetal bovine serum and 100 units/mL penicillin-streptomycin) at 37° C. under 5% CO2 on a plate shaker.
WSU-DLCL2 cells were seeded in assay medium at a concentration of 50,000 cells per mL to a 96-well V-bottom cell culture plate with 200 μL per well. […] Plates were incubated on a titer-plate shaker at 37° C., 5% CO2 for 96 hours. After four days of incubation, plates were spun at 241×g for five minutes and medium was aspirated gently from each well of cell plate without disturbing cell pellet. Pellet was resuspended in: 200 μL DPBS and plates were spun again at 241×g for five minutes. The supernatant was aspirated and cold (4° C.) Extraction buffer (100 μL) was added per well. Plates were incubated at 4° C. on orbital shaker for two hours. Plates were spun at 3427×g×10 minutes. Supernatant (80 μL per well) was transferred to its respective well in 96 well V-bottom polypropylene plate. Neutralization Buffer 5× (20 μL per well) was added to V-bottom polypropylene plate containing supernatant. V-bottom polypropylene plates containing crude histone preparation (CHP) were incubated on orbital shaker×five minutes. Crude Histone Preparations were added (2 μL per well) to each respective well into duplicate 96 well ELISA plates containing 100 μL Coating Buffer (1×PBS+BSA 0.05% w/v). Plates were sealed and incubated overnight at 4° C. The following day, plates were washed three times with 300 μL per well 1×PBST. […] For H3K27me3 detection, 100 μL of HRP conjugated anti-rabbit IgG antibody diluted to 1:4000 in ELISA diluent was added per well. Plates were incubated at room temperature for 90 minutes. […] TMB substrate 100 μL was added per well. Histone H3 plates were incubated for five minutes at room temperature. H3K27me3 plates were incubated for 10 minutes at room temperature. The reaction was stopped with sulfuric acid 1N (100 μL per well). Absorbance for each plate was read at 450 nm.
Each plate included eight control wells DMSO only treatment (Minimum Inhibition) as well as eight control wells for maximum inhibition (Background wells).
The average of the ratio values for each control type was calculated and used to determine the percent inhibition for each test well in the plate. Test compound was serially diluted three-fold in DMSO for a total of ten test concentrations, beginning at 25 μM.

Chain of wild-type EZH2 (PRC2 enzyme) (Q15910 whole entry): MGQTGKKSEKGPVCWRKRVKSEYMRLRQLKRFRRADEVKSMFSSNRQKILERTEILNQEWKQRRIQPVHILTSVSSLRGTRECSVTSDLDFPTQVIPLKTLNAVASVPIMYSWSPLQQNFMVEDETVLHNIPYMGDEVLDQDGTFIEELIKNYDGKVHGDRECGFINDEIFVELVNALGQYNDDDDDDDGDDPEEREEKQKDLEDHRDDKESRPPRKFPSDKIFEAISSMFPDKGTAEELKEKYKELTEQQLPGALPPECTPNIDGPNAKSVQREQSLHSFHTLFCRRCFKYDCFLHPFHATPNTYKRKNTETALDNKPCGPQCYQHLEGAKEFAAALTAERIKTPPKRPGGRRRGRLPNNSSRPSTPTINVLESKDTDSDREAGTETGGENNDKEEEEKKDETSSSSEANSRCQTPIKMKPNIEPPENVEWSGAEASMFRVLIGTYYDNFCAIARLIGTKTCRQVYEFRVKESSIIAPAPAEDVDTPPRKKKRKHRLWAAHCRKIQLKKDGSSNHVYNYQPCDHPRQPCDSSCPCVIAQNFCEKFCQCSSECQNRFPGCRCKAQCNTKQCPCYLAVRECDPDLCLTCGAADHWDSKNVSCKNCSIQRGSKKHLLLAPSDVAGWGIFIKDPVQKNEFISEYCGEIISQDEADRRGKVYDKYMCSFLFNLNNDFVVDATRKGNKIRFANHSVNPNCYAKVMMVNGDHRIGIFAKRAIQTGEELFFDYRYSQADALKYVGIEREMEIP
Chain of wild-type EZH2 (PRC2 enzyme) (O75530 whole entry partner): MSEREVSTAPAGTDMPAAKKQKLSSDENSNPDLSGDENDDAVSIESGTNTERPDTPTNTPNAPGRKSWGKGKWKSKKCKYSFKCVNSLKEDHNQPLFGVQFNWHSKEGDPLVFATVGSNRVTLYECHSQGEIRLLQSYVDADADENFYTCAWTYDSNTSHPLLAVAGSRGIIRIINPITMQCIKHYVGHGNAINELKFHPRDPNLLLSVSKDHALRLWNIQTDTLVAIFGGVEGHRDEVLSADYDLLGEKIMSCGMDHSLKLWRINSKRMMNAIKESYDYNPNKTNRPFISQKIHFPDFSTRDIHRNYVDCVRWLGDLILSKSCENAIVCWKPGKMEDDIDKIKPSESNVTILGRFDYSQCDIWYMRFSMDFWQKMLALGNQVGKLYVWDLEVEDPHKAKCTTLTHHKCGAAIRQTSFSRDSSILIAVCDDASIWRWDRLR
Chain of wild-type EZH2 (PRC2 enzyme) (Q15022 whole entry partner): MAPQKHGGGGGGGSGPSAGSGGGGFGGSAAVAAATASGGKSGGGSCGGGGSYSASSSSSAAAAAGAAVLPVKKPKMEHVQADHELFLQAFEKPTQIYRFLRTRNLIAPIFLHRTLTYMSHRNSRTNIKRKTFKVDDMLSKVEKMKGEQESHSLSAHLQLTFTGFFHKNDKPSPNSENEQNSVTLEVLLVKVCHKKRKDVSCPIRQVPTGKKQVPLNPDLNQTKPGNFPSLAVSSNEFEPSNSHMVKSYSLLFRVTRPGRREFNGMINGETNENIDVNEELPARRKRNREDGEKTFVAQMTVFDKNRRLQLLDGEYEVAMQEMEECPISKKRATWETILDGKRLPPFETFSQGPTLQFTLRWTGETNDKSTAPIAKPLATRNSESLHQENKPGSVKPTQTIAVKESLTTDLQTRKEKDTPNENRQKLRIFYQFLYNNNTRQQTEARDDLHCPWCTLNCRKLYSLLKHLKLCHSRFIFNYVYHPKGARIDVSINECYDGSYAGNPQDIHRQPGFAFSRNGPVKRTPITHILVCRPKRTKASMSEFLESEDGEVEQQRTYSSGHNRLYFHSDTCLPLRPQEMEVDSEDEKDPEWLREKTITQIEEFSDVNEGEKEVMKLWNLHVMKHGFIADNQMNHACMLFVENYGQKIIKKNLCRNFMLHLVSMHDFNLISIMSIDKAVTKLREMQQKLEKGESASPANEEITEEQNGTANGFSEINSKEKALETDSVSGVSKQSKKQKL
Chain of wild-type EZH2 (PRC2 enzyme) (Q09028 whole entry partner): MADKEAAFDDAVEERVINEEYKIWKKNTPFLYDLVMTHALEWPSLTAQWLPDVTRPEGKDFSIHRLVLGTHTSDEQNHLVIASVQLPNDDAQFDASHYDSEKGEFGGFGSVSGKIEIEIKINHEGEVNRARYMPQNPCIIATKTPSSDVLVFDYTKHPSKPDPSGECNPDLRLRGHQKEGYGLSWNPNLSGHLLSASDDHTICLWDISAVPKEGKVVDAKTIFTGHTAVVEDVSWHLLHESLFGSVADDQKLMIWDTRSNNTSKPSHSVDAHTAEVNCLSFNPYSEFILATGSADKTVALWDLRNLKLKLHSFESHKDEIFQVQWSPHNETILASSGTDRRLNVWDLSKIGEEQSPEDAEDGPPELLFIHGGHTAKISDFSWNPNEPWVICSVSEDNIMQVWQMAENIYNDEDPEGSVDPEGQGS
Chain of EZH2 Y641F mutant (PRC2 enzyme) (Q15910 whole entry Y641F): as the sequence (Q15910 whole entry) above, with Y641F counted along it
Chain of EZH2 Y641F mutant (PRC2 enzyme) (O75530 whole entry partner): as the sequence (O75530 whole entry partner) above
Chain of EZH2 Y641F mutant (PRC2 enzyme) (Q15022 whole entry partner): as the sequence (Q15022 whole entry partner) above
Chain of EZH2 Y641F mutant (PRC2 enzyme) (Q09028 whole entry partner): as the sequence (Q09028 whole entry partner) above

| SMILES | IC50 [1] [µM] | IC50 [2] [µM] | IC50 (WSU-DLCL2 cells) [µM] | IC50 [3] [µM] |
| --- | --- | --- | --- | --- |
| CCN(c1cc(Cl)cc(C(=O)NCc2c(C)[nH]n(C)c2=O)c1C)[C@@H]1COC[C@H]1OC (relative stereo) [Compound 42, 5-chloro-N-((2,5-dimethyl-3-oxo-2,3-dihydro-1H-pyrazol-4-yl)methyl)-3-(ethyl((trans)-4-methoxytetrahydrofuran-3-yl)amino)-2-methylbenzamide] | > 50 |  | > 20 |  |
| CCN(c1cc(Cl)cc(C(=O)NCc2c(CCN(C)C)cc3n(c2=O)NCC3)c1C)[C@H]1CC[C@H](N(C)C)CC1 [Compound 1, 5-chloro-3-(((trans)-4-(dimethylamino)cyclohexyl)(ethyl)amino)-N-((5-(2-(dimethylamino)ethyl)-7-oxo-1,2,3,7-tetrahydropyrazolo[1,5-a]pyridin-6-yl)methyl)-2-methylbenzamide] |  |  | 0.85 |  |
| CCN(c1cc(Cl)cc(C(=O)NCc2c(C)[nH][nH]c2=O)c1C)[C@H]1CC[C@H](N(C)C)CC1 [Compound 32, 5-chloro-3-(ethyl((trans)-4-(dimethylamino)cyclohexyl)amino)-2-methyl-N-((5-methyl-3-oxo-2,3-dihydro-1H-pyrazol-4-yl)methyl]benzamide Formate] | 0.068 | 0.015 | 11.5 | 15.4 |
| CCc1[nH]n(C)c(=O)c1CNC(=O)c1cc(Cl)cc(N(CC)[C@H]2CC[C@H](N(C)C)CC2)c1C [Compound 38, 5-chloro-3-(((trans)-4-(dimethylamino)cyclohexyl)(ethyl)amino)-N-((5-ethyl-2-methyl-3-oxo-2,3-dihydro-1H-pyrazol-4-yl)methyl)-2-methylbenzamide] | 3.37 | 0.265 | > 20 | 18.1 |
| CCN(c1cc(Cl)cc(C(=O)NCc2c(=O)[nH]n3cccnc23)c1C)[C@H]1CC[C@H](N(C)C)CC1 [Compound 51, 5-chloro-3-(((trans)-4-(dimethylamino)cyclohexyl)(ethyl)amino)-2-methyl-N-((2-oxo-1,2-dihydropyrazolo-[1,5-a]-pyrimidin-3-yl)methyl)benzamide] | 2.87 | 0.573 | > 20 |  |
| CCN(c1cc(-c2ccc(OCCOC)cc2)cc(C(=O)NCc2c(C)n(C)[nH]c2=O)c1C)[C@H]1CC[C@H](N(C)C)CC1 [Compound 59, N-((1,5-dimethyl-3-oxo-2,3-dihydro-1H-pyrazol-4-yl)methyl)-5-(((trans)-4-(dimethylamino)cyclohexyl)(ethyl)amino)-4′-(2-methoxyethoxy)-4-methyl-[1,1′-biphenyl]-3-carboxamide] |  |  | > 20 | > 50 |
| CCN(c1cc(Cl)cc(C(=O)NCc2c(C)nn(C)c2OC)c1C)[C@H]1CC[C@H](N(C)C)CC1 [Compound 91, 5-chloro-N-((5-methoxy-1,3-dimethyl-1H-pyrazol-4-yl)methyl)-3-(((trans)-4-(dimethylamino)cyclohexyl)(ethyl)amino)-2-methylbenzamide] | 7.45 | 1.17 |  | > 50 |

Continued by falling IC50 [1], values first:

| IC50 [1] [µM] | IC50 [2] [µM] | SMILES | IC50 (WSU-DLCL2 cells) [µM] | IC50 [3] [µM] |
| --- | --- | --- | --- | --- |
| 2.11 | 0.695 | CCN(c1cc(-c2ccc(OCCOC)cc2)cc(C(=O)NCc2c(C)n(C)[nH]c2=O)c1C)[C@H]1CC[C@H](N(C)CCOC)CC1 [Compound 60, N-((1,5-dimethyl-3-oxo-2,3-dihydro-1H-pyrazol-4-yl)methyl)-5-(ethyl((trans)-4-((2-methoxyethyl)(methyl)amino)cyclohexyl)amino)-4′-(2-methoxyethoxy)-4-methyl-[1,1′-biphenyl]-3-carboxamide] | 13.5 |  |
| 1.54 | 0.342 | CCCN(c1cc(-c2ccc(OCCOC)cc2)cc(C(=O)NCc2c(C)n(C)[nH]c2=O)c1C)[C@H]1CC[C@H](N(C)C)CC1 [Compound 58, N-((1,5-dimethyl-3-oxo-2,3-dihydro-1H-pyrazol-4-yl)methyl)-5-(((trans)-4-(dimethylamino)cyclohexyl)(propyl)amino)-4′-(2-methoxyethoxy)-4-methyl-[1,1′-biphenyl]-3-carboxamide] | 14.3 |  |
| 0.829 | 0.114 | CCn1[nH]c(C)c(CNC(=O)c2cc(Cl)cc(N(CC)[C@H]3CC[C@H](N(C)C)CC3)c2C)c1=O [Compound 36, 5-chloro-3-(((trans)-4-(dimethylamino)cyclohexyl)(ethyl)amino)-N-((2-ethyl-5-methyl-3-oxo-2,3-dihydro-1H-pyrazol-4-yl)methyl)-2-methylbenzamide] | > 20 | 7.97 |
| 0.745 | 0.193 | CCn1nc(OC)c(CNC(=O)c2cc(Cl)cc(N(CC)[C@H]3CC[C@H](N(C)Cc4cccc(OC)c4)CC3)c2C)c1C [Compound 62, 5-chloro-3-(ethyl((trans)-4-((3-methoxybenzyl)-(methyl)-amino)-cyclohexyl)-amino)-N-((1-ethyl-3-methoxy-5-methyl-1H-pyrazol-4-yl)methyl)-2-methylbenzamide] |  | > 50 |
| 0.695 | 0.418 | CCN(c1cc(Cl)cc(C(=O)NCc2c(C)n(C)[nH]c2=O)c1C)[C@H]1CC[C@H](N(C)CCOC)CC1 [Compound 55, 5-chloro-N-((1,5-dimethyl-3-oxo-2,3-dihydro-1H-pyrazol-4-yl)methyl)-3-(ethyl((trans)-4-((2-methoxyethyl)(methyl)amino)cyclohexyl)amino)-2-methylbenzamide] |  | 30.6 |
| 0.367 | 0.03 | CCn1[nH]c(=O)c(CNC(=O)c2cc(Cl)cc(N(CC)[C@H]3CC[C@H](N(C)C)CC3)c2C)c1C [Compound 52, 5-chloro-3-(((trans)-4-(dimethylamino)cyclohexyl)(ethyl)amino)-N-((1-ethyl-5-methyl-3-oxo-2,3-dihydro-1H-pyrazol-4-yl)methyl)-2-methylbenzamide] | 7.34 | 3.04 |
| 0.267 | 0.063 | CCN(c1cc(-c2ccc(OCCOC)cc2)cc(C(=O)NCc2c(C)[nH]n(C)c2=O)c1C)[C@H]1CC[C@H](N(C)C)CC1 [Compound 35, N-((2,5-dimethyl-3-oxo-2,3-dihydro-1H-pyrazol-4-yl)methyl)-5-(((trans)-4-(dimethylamino)cyclohexyl)(ethyl)amino)-4′-(2-methoxyethoxy)-4-methyl-[1,1′-biphenyl]-3-carboxamide] | > 20 | 17.9 |
| 0.223 | 0.11 | CCN(c1cc(Cl)cc(C(=O)NCc2c(C)[nH]n(C)c2=O)c1C)[C@H]1CC[C@H](N(C)C)CC1 [Compound 34, 5-chloro-N-((2,5-dimethyl-3-oxo-2,3-dihydro-1H-pyrazol-4-yl)methyl)-3-(((trans)-4-(dimethylamino)cyclohexyl)(ethyl)amino)-2-methylbenzamide] | 6.92 | 18.6 |
| 0.00971 | 0.0144 | CCN(c1cc(Cl)cc(C(=O)NCc2c(N3CCCCC3)n(C)[nH]c2=O)c1C)[C@H]1CC[C@H](N(C)C)CC1 [Compound 93, 5-chloro-3-(ethyl[(trans)-4-(dimethylamino)cyclohexyl]amino)-2-methyl-N-([1-methyl-3-oxo-5-(piperidin-1-yl)-2,3-dihydro-1H-pyrazol-4-yl]methyl)benzamide] |  | 3.55 |

From patent US10150764B2, “Substituted benzene compounds” (Epizyme, Inc., priority 2013, dated 2018)
